This is an account of results in patent publication US11345912B2, “Directed evolution of multivalent glycopeptides that tightly bind to target proteins” (Brandeis University, priority 2013, dated 2022).

This experiment deals with 2G12. Kind of experiment: BioLayer Interferometry (BLI) of 2G12 binding to surface-immobilized synthetic glycopeptide. The conditions noted are these: Table 6; evaluated by BLI, material prepared synthetically. As for the experimental part: Biotinylation of 10F2 glycopeptide and determination of 2G12 binding by BLI (BioLayer Interferometry): 200 μg 10F2 glycopeptide in 5.5 μL water was treated with […] of 50 mM TCEP.HCl/1M Tris-HCl buffer, pH 7.8, under argon, using the same inert gas setup employed in the click procedure. After 4.5 h, the reaction mixture was injected into HPLC (Waters Symmetry, 300 C4, 5 μm, 4.6×250 mm, 1 mL/min, 2-42% over 60 min, retention time 46.8 min).
The 2G12 binding of the resulting biotinylated glycopeptide 3 was determined using a BLItz instrument (Fortebio). Biotin-10F2 was loaded (120 sec) onto a streptavidin biosensor as a 500 nM solution in Buffer 1 (20 mM Tris pH 7.5, 150 mM NaCl, 2 mM MgSO4, 0.20 mg/mL BSA, 0.02% Tween-20). The sensor was washed with Buffer 1 for 60 sec, after which time the net response due to loading was observed as 0.2 nm. The sensor was then equilibrated with Buffer 2 (20 mM Tris pH 7.5, 150 mM NaCl, 2 mM MgSO4, 2.0 mg/mL BSA, 0.1% v/v Tween-20) for 90 sec. 2G12 (prepared in Buffer 2) was associated at several concentrations (0.5, 1, 2, 4, 8, 16, 32 nM, in random order) for 600 sec, followed by dissociation into blank Buffer 2 for 600 sec. […]
For orientation: Biolayer interferometry detects binding as a change in optical thickness at a sensor tip.

In general, Kd refers to the concentration at which binding is half-saturated. In turn, `CC[C@H](C)[C@H](NC(=O)[C@@H](NC(=O)[C@@H](NC(=O)[C@H](Cc1c[nH]cn1)NC(=O)[C@H](CC(N)=O)NC(=O)[C@H](CC(=O)O)NC(=O)[C@H](CCc1cn(C2CCC(OC3O[C@H](CO[C@H]4O[C@H](CO[C@H]5O[C@H](CO)[C@@H](O)[C@H](O)[C@@H]5O[C@H]5O[C@H](CO)[C@@H](O)[C@H](O)[C@@H]5O)[C@@H](O)[C@H](O[C@H]5O[C@H](CO)[C@@H](O)[C@H](O)[C@@H]5O[C@H]5O[C@H](CO)[C@@H](O)[C@H](O)[C@@H]5O)[C@@H]4O)[C@@H](O)[C@H](O[C@H]4O[C@H](CO)[C@@H](O)[C@H](O)[C@@H]4O[C@H]4O[C@H](CO)[C@@H](O)[C@H](O)[C@@H]4O[C@H]4O[C@H](CO)[C@@H](O)[C@H](O)[C@@H]4O)[C@@H]3O)CC2)nn1)NC(=O)[C@@H](NC(=O)[C@H](CCCCN)NC(=O)[C@H](CCC(=O)O)NC(=O)[C@H](CCCNC(=N)N)NC(=O)[C@H](CCCCN)NC(=O)[C@H](C)NC(=O)[C@H](CC(N)=O)NC(=O)[C@@H](NC(=O)[C@H](CCCCN)NC(=O)[C@@H](NC(=O)[C@H](C)NC(=O)[C@H](CCc1cn(C2CCC(OC3O[C@H](CO[C@H]4O[C@H](CO[C@H]5O[C@H](CO)[C@@H](O)[C@H](O)[C@@H]5O[C@H]5O[C@H](CO)[C@@H](O)[C@H](O)[C@@H]5O)[C@@H](O)[C@H](O[C@H]5O[C@H](CO)[C@@H](O)[C@H](O)[C@@H]5O[C@H]5O[C@H](CO)[C@@H](O)[C@H](O)[C@@H]5O)[C@@H]4O)[C@@H](O)[C@H](O[C@H]4O[C@H](CO)[C@@H](O)[C@H](O)[C@@H]4O[C@H]4O[C@H](CO)[C@@H](O)[C@H](O)[C@@H]4O[C@H]4O[C@H](CO)[C@@H](O)[C@H](O)[C@@H]4O)[C@@H]3O)CC2)nn1)NC=O)[C@@H](C)O)[C@@H](C)O)[C@@H](C)O)C(C)C)[C@@H](C)O)C(=O)N[C@@H](CCc1cn(C2CCC(OC3O[C@H](CO[C@H]4O[C@H](CO[C@H]5O[C@H](CO)[C@@H](O)[C@H](O)[C@@H]5O[C@H]5O[C@H](CO)[C@@H](O)[C@H](O)[C@@H]5O)[C@@H](O)[C@H](O[C@H]5O[C@H](CO)[C@@H](O)[C@H](O)[C@@H]5O[C@H]5O[C@H](CO)[C@@H](O)[C@H](O)[C@@H]5O)[C@@H]4O)[C@@H](O)[C@H](O[C@H]4O[C@H](CO)[C@@H](O)[C@H](O)[C@@H]4O[C@H]4O[C@H](CO)[C@@H](O)[C@H](O)[C@@H]4O[C@H]4O[C@H](CO)[C@@H](O)[C@H](O)[C@@H]4O)[C@@H]3O)CC2)nn1)C(=O)N[C@@H](CCCNC(=N)N)C(=O)N[C@@H](CO)C(=O)N[C@H](C(=O)N1CCC[C@H]1C(=O)N[C@@H](Cc1c[nH]c2ccccc12)C(=O)N[C@@H](Cc1ccc(O)cc1)C(=O)N[C@H](C(=O)N[C@@H](Cc1ccc(O)cc1)C(=O)N[C@@H](CCCNC(=N)N)C(=O)N[C@@H](Cc1c[nH]c2ccccc12)C(=O)N[C@@H](CC(C)C)C(=O)N1CCC[C@H]1C(=O)N[C@@H](CC(N)=O)C(=O)NCC(=O)N[C@@H](CO)C(=O)NCC(=O)N[C@@H](CO)C(=O)NCC(=O)N[C@@H](CSC1CC(=O)N(CCC(=O)NCCOCCOCCNC(=O)CCCC[C@@H]2SC[C@@H]3NC(=O)N[C@@H]32)C1=O)C(=O)N[C@@H](C)C(=O)O)[C@@H](C)O)[C@@H](C)CC` (stereo partly shown) [Clone 10V1-C7A, XATKTNAKREKTXDNHVTIXRSIPWYTYRWLPN] had a Kd of 4.4 nM.
